SMILES strings stand for the structures.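 Following 48 hours of exposure in 96-well plates, responses at five concentrations were used to interpolate endpoints linearly. GI50: concentration for 50% inhibition of growth.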 The source made the active and inactive calls. Rule as the data show it: active = GI50 up to about 1.1 µM and inactive = higher. *1 amine or outer side, *2 acyl side, *3 side chain or, on linkers, in order; H or OH if unused. Where a SMILES comes first, the peptide text is derived from it. Bridges are numbered along the chain shown (N, C = ends). [ ]: non-standard residue; d: D form. The star is where a group is joined. X36 = O=C(C(CCCCNO[*:3])N[*:1])[*:2]; Fmoc = O=C(OCC1c2ccccc2-c2ccccc21)*; Boc = CC(C)(C)OC(=O)* Where only a bound is given, the exact number is not on record here.

Here are results for 4 molecules from ChEMBL document CHEMBL1201862, “PubChem BioAssay data set” (2004).

Among the test systems are IGROV-1; EKVX; SK-MEL-2; MDA-MB-231; HL-60; SNB-19; RPMI-8226; Malme-3M; SF-295; PC-3; K562; U-251; SNB-75; NCI/ADR-RES; A549; HCT-15; CCRF-CEM; HCT-116; HT-29; DU-145.
What all share (assay): inhibition of tumour cell growth, NCI panel, 48 h

Regarding `O=C1C(Cl)=C(Cl)C(=O)C2=C1C1c3ccccc3C2c2ccccc21`, the GI50 with IGROV-1 is > 100 µM (inactive); in the assay with EKVX, > 100 µM (inactive); in the assay on SK-MEL-2 it was > 100 µM (inactive); with MDA-MB-231, 31.1 µM (inactive); in the assay with HL-60, 26.2 µM (inactive); in the assay with SNB-19, 49.5 µM (inactive). In addition, the GI50 in the assay on RPMI-8226 was 25.6 µM (inactive); in the assay with Malme-3M, 24 µM (inactive); in the assay with SF-295, 41.5 µM (inactive); in the assay on PC-3, > 100 µM (inactive); in the assay with K562 it was 38.6 µM (inactive); with U-251 it was 20.9 µM (inactive). Besides, the GI50 is > 100 µM (inactive) in the assay with SNB-75; 94.8 µM (inactive) in the assay with NCI/ADR-RES; 99.1 µM (inactive) with A549; 39.3 µM in the assay with HCT-15; 59 µM (inactive) in the assay on CCRF-CEM; 55.3 µM (inactive) with HCT-116. In addition, the GI50 in the assay with HT-29 and in the assay with DU-145 was > 100 µM (inactive) each time.
For `NC(=O)CNC(=O)C1CCCN1C(=O)C1CCCCNOC(=O)CCC(NC(=O)OCC2c3ccccc3-c3ccccc32)C(=O)NC(Cc2c[nH]c3ccccc23)C(=O)N1` (stereo not given) (Fmoc-EW[X36]PG-NH2; ester 1-3; configuration not given here), the GI50 was > 100 µM (inactive) in the assay on IGROV-1; > 100 µM (inactive) with EKVX; > 100 µM (inactive) in the assay on SK-MEL-2; 15.2 µM (inactive) in the assay with MDA-MB-231; > 100 µM (inactive) in the assay on HL-60; > 100 µM (inactive) in the assay on SNB-19. The GI50 with RPMI-8226, with Malme-3M, with SF-295, with PC-3, with K562 and in the assay with U-251 was > 100 µM (inactive) in each case. Moreover, the GI50 is > 100 µM (inactive) in the assay on SNB-75; > 100 µM (inactive) in the assay on NCI/ADR-RES; > 100 µM (inactive) with A549; > 100 µM with HCT-15; > 100 µM (inactive) in the assay with CCRF-CEM; > 100 µM (inactive) in the assay with HCT-116. In addition, the GI50 with HT-29 and in the assay with DU-145 was > 100 µM (inactive) throughout.
`CC(C)(C)OC(=O)NCCCCC(NC(=O)C(Cc1c[nH]c2ccccc12)NC(=O)OCC1c2ccccc2-c2ccccc21)C(=O)O` (stereo not given) (Fmoc-Trp-Lys(Boc)-OH; configuration not given here): the GI50 in the assay on IGROV-1 was 52.2 µM (inactive); in the assay with EKVX it was > 100 µM (inactive); with SK-MEL-2, 23.1 µM (inactive); in the assay with MDA-MB-231, 27.5 µM (inactive); in the assay on HL-60 it was 15.5 µM (inactive); with SNB-19, 27.3 µM (inactive). The GI50 in the assay with RPMI-8226 is 25 µM (inactive); with Malme-3M, 47.8 µM (inactive); with SF-295, 62.7 µM (inactive); with PC-3 it was 34.8 µM (inactive); with K562, 18.8 µM (inactive); in the assay on U-251 it was 17.1 µM (inactive). The GI50 in the assay with SNB-75 is 55 µM (inactive); in the assay on NCI/ADR-RES, > 100 µM (inactive); with A549, > 100 µM (inactive); with HCT-15, > 100 µM; in the assay on CCRF-CEM, 24.7 µM (inactive); with HCT-116, 32 µM (inactive). Further, the GI50 is 40.5 µM (inactive) with HT-29 and 76.4 µM (inactive) with DU-145.
On to `Cc1cccc(Nc2cc(Cl)nc(SCC(=O)O)n2)c1C` [PIRINIXIC ACID], for which the GI50 with IGROV-1, with EKVX, in the assay with SK-MEL-2, in the assay with MDA-MB-231, in the assay with HL-60 and in the assay with SNB-19 was > 100 µM (inactive) in each case. Also, the GI50 was 97.7 µM (inactive) in the assay with RPMI-8226; > 100 µM (inactive) with Malme-3M; > 100 µM (inactive) in the assay on SF-295; > 100 µM (inactive) with PC-3; 87.5 µM (inactive) in the assay with K562; > 100 µM (inactive) in the assay with U-251. The GI50 was > 100 µM (inactive) with SNB-75; > 100 µM (inactive) in the assay on NCI/ADR-RES; > 100 µM (inactive) with A549; > 100 µM with HCT-15; > 100 µM (inactive) in the assay on CCRF-CEM; > 100 µM (inactive) in the assay with HCT-116. Also, the GI50 in the assay on HT-29 and in the assay with DU-145 was > 100 µM (inactive) in each case.
